Data: ChEMBL document CHEMBL6121057, “Discovery of an Orally Bioavailable STING Inhibitor with In Vivo Anti-Inflammatory Activity in Mice with STING-Mediated Inflammation” (J Med Chem, 2025)

How the values were obtained:
[1] = Metabolic stability in human liver microsomes assessed as intrinsic clearance; type: ADME, Microsome; conditions: read-out: CLH
[2] = Metabolic stability in human liver microsomes assessed as half life; type: ADME, Microsome

**Q.** Which CLint scaled [1] does the source give for `CC(C)(C)c1ccc(NC(=O)Nc2c[nH]c3ccc(F)cc23)cc1` here?
**A.** 76.3 mL/min/kg

**Q.** And the half-life [2]?
**A.** 16.3 min
